Assay [1] has as its system mice. Kind of assay: phenyl-p-quinone writhing assay in mice (analgesic activity, modified). Type of assay: in vivo, male mice (Charles River, CD-1). The following applies: Mus musculus, sc, tested at peak time, estimated dose at which 50% inhibition of writhing is produced, computer linear regression. The method, then: The procedure employed to determine analgesic utility is a modification of the phenyl-p-quinone writhing assay in mice, a standard assay for analgesia (Proc. Soc. Exptl. Bio. Med., 95 729 (1957)]. In the modified procedure phenyl-p-benzoquinone (Eastman, 12.5 mg) is dissolved in 5 ml of 95% ethanol and the solution is diluted to a total volume of 100 ml with distilled water. The solution is administered to the subject mice […] at a dose of 10 ml per kg of body weight. A characteristic "writh", an inward rotation of one or more feet with twisting and turning of the trunk, drawing in of the abdominal wall, lordosis and arching of the back, is produced.
A total of 28 male mice (Charles River, CD-1), weighing 18 to 30 grams, are employed for a time response. The subject animals receive food and water ad libitum. Test compounds are dissolved in distilled water, or suspended in distilled water containing one drop of a suitable surfactant, such as Tween-80.
Four groups of five animals (20 animals) are given the test compound subcutaneously at 15, 30, 45 and 60 minutes prior to administration of the phenyl-p-quinone. Four control groups of 2 animals (8 animals) receive an equal volume of the vehicle. […] The number of writhes for each animal is recorded. […]

Assay [2] deals with mice. The experiment in a line: climbing mice assay (apomorphine climbing, antipsychotic activity). The following applies: Mus musculus, ip, compound 30 minutes prior to apomorphine 1.5 mg/kg subcutaneously, climbing scores at 10, 20 and 30 minutes, linear regression, read-out: Anti-Psychotic Activity (ED50). Type of assay: in vivo, CK-1 male mice. An excerpt: The subject CK-1 male mice (23-27 grams) are group-housed under standard laboratory conditions. The mice are individually placed in wire mesh stick cages (4"×4" by 10") and are allowed one hour for adaptation and exploration of the new environment.
Mice consistently climbing before the injection of apomorphine are discarded.
With full-developed apomorphine climbing, the animals are hanging onto the cage walls, rather motionless, over longer periods of time. By contrast, climbs due to mere motor stimulation usually last only a few seconds.

As usually defined, the ED50 is the midpoint of the dose-response relation.

On to `CC(C)=CCN1CCC2(C)c3cc(O)ccc3CC1C2C` (stereo not shown) [Pentazocine], for which the ED50 in assay [1] is 1.3 mg/kg. Take `CSc1ccc2c(c1)N(CCCN1CCC(C(=O)c3ccc(F)cc3)CC1)c1ccccc1S2.O=C(O)/C=C/C(=O)O` [4-(4-Fluorobenzoyl)-1-[3-(2-methylthio-10H-phenothiazin-10-yl)propyl]piperidine fumarate]: the 50% effective dose (ED50) in assay [1] is 6.1 mg/kg; in assay [2], 1.4 mg/kg.

With `CSc1ccc2c(c1)N(CCC1CCCCN1C)c1ccccc1S2` (stereo not shown) [Thioridazine], in assay [2], the ED50 is 4.1 mg/kg.

Source of the values: patent US4812456A, “1-(N-(2-alkylthio-10H-phenothiazin-10-yl)alkyl)-4-benzoylpiperidines and pharmaceutical use” (Hoechst-Roussel Pharmaceuticals Inc., priority 1987, dated 1989).
